Experimental data reported in patent US20160220569A1, “CDK4/6 Inhibitor Dosage Formulations For The Protection Of Hematopoietic Stem And Progenitor Cells During Chemotherapy” (G1 Therapeutics, Inc., priority 2015, published 2016).
Where “and” joins values, the source holds several entries; their conditions need not be identical. Identical values can stand only once.

What was measured:
[1] = Nonclinical IV and oral pharmacokinetics in rats; type: in vivo; conditions: rat, plasma
Text: Systemic exposure in rats as measured by Cmax and AUClast was dose-dependent.

[2] = PK comparison of Compound 1 clinical data with literature PK of palbociclib; type: in vivo, human
bone marrow cells = assay: Bone marrow EdU incorporation (S-phase) after single dose in dogs; type: in vivo; conditions: increasing single doses, 8 and 16 hours
Target lesions = assay: Tumor response, Compound 1 with topotecan; type: in vivo, human; conditions: for Cycle 2 Target Lesion Sum: individual subjects
Procedure: In Cohort 2 there were 3 subjects who received 1.25 mg/m^2 of topotecan once daily on Days 1 to 5. In Cohort 3 there were 4 subjects who received 0.75 mg/m^2 of topotecan once daily on Days 1 to 5. […] Target lesions were summed and response tabulated as follows: […]

CDK4/6 = CDK4/6 inhibition in vitro and in vivo studies
[3] = human, plasma, 96 mg/m2, 96 mg/m^2 IV
[4] = Compound 1 200 mg/m^2 with topotecan, 2 to 4 cycles

Q: With `CN1CCN(c2ccc(Nc3ncc4cc5n(c4n3)C3(CCCCC3)CNC5=O)nc2)CC1` [Compound 1, 2′-((5-(4-methylpiperazin-1-yl)pyridin-2-yl)amino)-7′,8′-dihydro-6′H-spiro[cyclohexane-1,9′-pyrazino[1′,2′:1,5]pyrrolo[2,3-d]pyrimidin]-6′-one] as the compound, how does the half-life ([1]; both sexes, rats, after IV administration) read?
A: Its half-life is ~4 h.

Q: What about the bioavailability ([1]; oral) of the same compound?
A: Its bioavailability is 60 to 70%.

Q: What about the CL/F ([2]; 96 mg/m^2 IV) of the same compound?
A: The CL/F was 121 L/h.

Q: And the “accumulation in blood plasma on consecutive days” value ([2]; Compound 1)?
A: The value was “does not show accumulation”.

Q: What about the CL/F ([2]; […]^2 IV) of the same compound?
A: The CL/F was 126 L/h.

Q: What about the AUC(0-inf) [2, 3] of the same compound?
A: The AUC(0-inf) was 1380 ng·h/mL.

Q: And the Cmax [2, 3]?
A: The Cmax was 932 ng/mL.

Q: And the half-life [2, 3]?
A: Its half-life is 8.6 h.

Q: What about the half-life ([2]; human, plasma, iv, […]2) of the same compound?
A: The half-life was 7.9 h.

Q: And the “bone marrow cells in S phase” value (bone marrow cells)?
A: Its value is “decrease in the number of cells in S phase”.

Q: And the “Cycle 2 Target Lesion Sum” value (Target lesions; Compound 1 200 mg/m^2 followed by 1.25 mg/m^2 Topotecan)?
A: The value was 22 and 123.

Q: What about the “Cycle 2 Target Lesion Sum” value (Target lesions; Compound 1 200 mg/m^2 followed by .75 mg/m^2 Topotecan) of the same compound?
A: Its value is 157.

Q: What about the “subjects with partial responses” value (Target lesions; [4]) of the same compound?
A: The value was 3 subjects.

Q: And the “subjects with stable disease” value (Target lesions; [4])?
A: Its value is 3 subjects.

Q: And the CDK4/6 inhibitor characterisation (CDK4/6)?
A: The CDK4/6 inhibitor characterisation was “highly potent and selective CDK4/6 inhibitor”.
